Measured values reported in ChEMBL document CHEMBL1201862, “PubChem BioAssay data set” (2004).
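1) Cells in 96-well plates. 2) Compound, 48 h, 5 concentrations. 3) Linear interpolation between surrounding doses. 4) Unreached endpoint = highest concentration. GI50 = concentration required for 50% inhibition of growth.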 Calls of active or inactive are those of the source. Rule as the data show it: active = GI50 up to about 1.1 µM and inactive = higher. Where a SMILES comes first, the peptide text is derived from it. [ ]: non-standard residue; d: D form. The star is where a group is joined. ξ: configuration not given here. ξD = NC(CC(=O)O)C(=O)O; Boc = CC(C)(C)OC(=O)*; Aib = CC(C)(N)C(=O)O; OBn = c1ccc(CO*)cc1

Tests used:
Test in all cases: NCI tumour cell line growth inhibition, 48 h
SN12C = system: SN12C
SK-MEL-2 = system: SK-MEL-2
A549 = system: A549
OVCAR-4 = system: OVCAR-4
HOP-62 = system: HOP-62
UO-31 = system: UO-31
RPMI-8226 = system: RPMI-8226
NCI-H522 = system: NCI-H522
NCI-H23 = system: NCI-H23
COLO 205 = system: COLO 205
CCRF-CEM = system: CCRF-CEM
SW-620 = system: SW-620
SNB-19 = system: SNB-19
OVCAR-8 = system: OVCAR-8
CAKI-1 = system: CAKI-1
OVCAR-3 = system: OVCAR-3
HL-60 = system: HL-60
U-251 = system: U-251
Hs-578T = system: Hs-578T
SK-OV-3 = system: SK-OV-3

Measured: GI50

CC(C)(C)OC(=O)N1CCC(C(=O)O)CC1
inactive: SN12C > 100 µM | SK-MEL-2 > 100 µM | A549 > 100 µM | OVCAR-4 > 100 µM | HOP-62 > 100 µM | UO-31 > 100 µM | RPMI-8226 > 100 µM | NCI-H522 > 100 µM | NCI-H23 > 100 µM | COLO 205 > 100 µM | CCRF-CEM > 100 µM | SW-620 > 100 µM | SNB-19 > 100 µM | OVCAR-8 > 100 µM | CAKI-1 > 100 µM | OVCAR-3 > 100 µM | HL-60 > 100 µM | U-251 > 100 µM | Hs-578T > 100 µM

O=c1[nH]c2ccc(Cl)cc2c2oc(-c3ccccc3)nc12
inactive: SN12C 21.7 µM | SK-MEL-2 17.8 µM | A549 22.1 µM | OVCAR-4 18.1 µM | HOP-62 20.7 µM | UO-31 22.1 µM | RPMI-8226 26 µM | NCI-H522 16.9 µM | NCI-H23 25.2 µM | COLO 205 65.8 µM | CCRF-CEM 45.5 µM | SW-620 44.6 µM | SNB-19 19.8 µM | SK-OV-3 24.2 µM | OVCAR-8 5.62 µM | CAKI-1 21.6 µM | OVCAR-3 21.2 µM | U-251 20.7 µM | Hs-578T 15.7 µM

Cc1ccc(-c2c(C#N)c(-c3ccc(C)cc3)n(NS(=O)(=O)c3ccccc3)c(=O)c2C#N)cc1
inactive: SN12C 62.2 µM | SK-MEL-2 57.4 µM | A549 41.2 µM | OVCAR-4 40.6 µM | HOP-62 49.2 µM | RPMI-8226 14.7 µM | NCI-H522 50.1 µM | COLO 205 89.5 µM | CCRF-CEM 24.4 µM | SW-620 42.4 µM | SNB-19 42.1 µM | SK-OV-3 53.8 µM | OVCAR-8 69.2 µM | CAKI-1 83.8 µM | U-251 49.9 µM | Hs-578T > 100 µM

Cc1ccc(C)n1-n1c(Cc2ccc(Cl)cc2)n[nH]c1=O
inactive: SN12C > 100 µM | SK-MEL-2 31 µM | A549 69 µM | OVCAR-4 > 100 µM | HOP-62 > 100 µM | UO-31 58.7 µM | RPMI-8226 33.3 µM | NCI-H522 20.9 µM | COLO 205 83.6 µM | CCRF-CEM 36.6 µM | SW-620 > 100 µM | SNB-19 > 100 µM | SK-OV-3 > 100 µM | OVCAR-8 77.4 µM | CAKI-1 90.6 µM | OVCAR-3 54.5 µM | U-251 77.6 µM | Hs-578T > 100 µM

c1ccc(N/N=N/c2ccc(-c3nc4ccccc4o3)cc2)nc1
inactive: SN12C 56.6 µM | SK-MEL-2 41.1 µM | A549 46.7 µM | OVCAR-4 36 µM | HOP-62 55.8 µM | UO-31 26.6 µM | NCI-H522 43 µM | NCI-H23 34 µM | COLO 205 20.6 µM | SW-620 19.3 µM | SNB-19 75.2 µM | SK-OV-3 35.4 µM | OVCAR-8 35.8 µM | OVCAR-3 27.3 µM | HL-60 13.7 µM | U-251 37.9 µM | Hs-578T 77.8 µM

COc1cc(OC)c(C2c3cc4c(cc3OC(N3CCOCC3)C2C)OCO4)c(OC)c1 (stereo unspecified)
inactive: SN12C 67 µM | SK-MEL-2 > 100 µM | A549 45.9 µM | HOP-62 > 100 µM | UO-31 16.5 µM | RPMI-8226 20.2 µM | NCI-H522 > 100 µM | NCI-H23 > 100 µM | COLO 205 35.2 µM | CCRF-CEM 33.8 µM | SW-620 23.4 µM | SNB-19 28.7 µM | OVCAR-8 43.6 µM | OVCAR-3 7.29 µM | Hs-578T 2.45 µM

COC(=O)C(Cc1ccc(Oc2cc(CC(NC(=O)c3ccccc3)C(=O)OC)ccc2OC)cc1)NC(=O)c1ccccc1 (stereo unspecified)
inactive: SN12C 6.64 µM | SK-MEL-2 14.5 µM | A549 25.7 µM | OVCAR-4 26.4 µM | HOP-62 38.3 µM | UO-31 9.59 µM | RPMI-8226 3.03 µM | NCI-H522 7.29 µM | NCI-H23 22.9 µM | COLO 205 27 µM | SW-620 39.3 µM | SNB-19 35.5 µM | SK-OV-3 > 84.9 µM | OVCAR-8 10.7 µM | CAKI-1 54.8 µM | OVCAR-3 24.7 µM | HL-60 3.82 µM | U-251 32.8 µM | Hs-578T 23 µM

CCOC(=O)/C=C(/C(=O)OCC)n1c(=O)c(C)cn(C2CC(N=[N+]=[N-])C(CO)O2)c1=O (stereo unspecified)
inactive: SN12C 37.2 µM | SK-MEL-2 19.5 µM | A549 33.9 µM | OVCAR-4 32.6 µM | HOP-62 59.7 µM | UO-31 46.6 µM | RPMI-8226 17.4 µM | NCI-H522 20.7 µM | NCI-H23 34 µM | COLO 205 14.5 µM | SW-620 17 µM | SNB-19 > 100 µM | SK-OV-3 > 100 µM | OVCAR-8 28.9 µM | CAKI-1 31.6 µM | OVCAR-3 19.5 µM | HL-60 2.31 µM | U-251 18 µM | Hs-578T 51.2 µM

Clc1cc(N/N=C(/c2ccccc2)c2ncccn2)ncn1
inactive: SN12C 29.2 µM | SK-MEL-2 32.7 µM | A549 26 µM | OVCAR-4 22.1 µM | HOP-62 26.8 µM | UO-31 19.5 µM | RPMI-8226 16.5 µM | NCI-H522 2.56 µM | NCI-H23 21.4 µM | COLO 205 4.29 µM | CCRF-CEM 4.53 µM | SW-620 7.18 µM | SNB-19 60.7 µM | SK-OV-3 19.1 µM | OVCAR-8 16.5 µM | CAKI-1 7.96 µM | OVCAR-3 20.2 µM | U-251 31.8 µM | Hs-578T 24.5 µM

CCc1ccc2oc(=O)ccc2c1
inactive: SN12C > 100 µM | SK-MEL-2 > 100 µM | A549 > 100 µM | OVCAR-4 > 100 µM | HOP-62 > 100 µM | UO-31 31.4 µM | RPMI-8226 91 µM | NCI-H522 > 100 µM | NCI-H23 > 100 µM | COLO 205 > 100 µM | CCRF-CEM > 100 µM | SW-620 > 100 µM | SNB-19 > 100 µM | OVCAR-8 > 100 µM | CAKI-1 > 100 µM | OVCAR-3 > 100 µM | HL-60 42.5 µM | U-251 > 100 µM | Hs-578T > 100 µM

CCOC(=O)c1ccc(N(C)Cc2cnc3nc(N)nc(N)c3n2)cc1
inactive: SN12C 40.4 µM | SK-MEL-2 21.4 µM | HOP-62 13 µM | UO-31 14.2 µM | RPMI-8226 74 µM | NCI-H23 9.04 µM | COLO 205 > 100 µM | CCRF-CEM 89.9 µM | SW-620 6.3 µM | SNB-19 11.6 µM | SK-OV-3 18.5 µM | OVCAR-8 7.64 µM | CAKI-1 14.4 µM | OVCAR-3 14.5 µM | HL-60 80.4 µM | U-251 8.99 µM | Hs-578T 12.7 µM

c1ccc(-c2cc(-c3cccs3)c(-c3cccs3)o2)cc1
inactive: SN12C > 100 µM | SK-MEL-2 34.7 µM | A549 > 100 µM | OVCAR-4 > 100 µM | HOP-62 > 100 µM | UO-31 > 100 µM | RPMI-8226 > 100 µM | NCI-H23 > 100 µM | COLO 205 > 100 µM | CCRF-CEM > 100 µM | SW-620 > 100 µM | SNB-19 > 100 µM | SK-OV-3 > 100 µM | OVCAR-8 > 100 µM | CAKI-1 > 100 µM | OVCAR-3 61.1 µM | HL-60 > 100 µM | U-251 > 100 µM | Hs-578T > 100 µM

CSCCCS/C1=C/CCCCCCCCCC1
inactive: SN12C > 100 µM | SK-MEL-2 > 100 µM | A549 > 100 µM | OVCAR-4 > 100 µM | HOP-62 > 100 µM | UO-31 > 100 µM | RPMI-8226 > 100 µM | NCI-H23 > 100 µM | COLO 205 > 100 µM | SNB-19 > 100 µM | SK-OV-3 > 100 µM | CAKI-1 > 100 µM | OVCAR-3 > 100 µM | HL-60 > 100 µM | U-251 > 100 µM | Hs-578T > 100 µM

CCCC(=O)N/S(=N/S(=O)(=O)c1ccc(Cl)cc1)C(Cl)(Cl)Cl (stereo unspecified)
inactive: SN12C > 100 µM | SK-MEL-2 16.5 µM | A549 > 100 µM | HOP-62 > 100 µM | UO-31 > 100 µM | NCI-H23 > 100 µM | CCRF-CEM > 100 µM | SW-620 > 100 µM | SNB-19 > 100 µM | SK-OV-3 > 100 µM | OVCAR-8 > 100 µM | OVCAR-3 > 100 µM | HL-60 > 100 µM | U-251 47.9 µM | Hs-578T > 100 µM

CC(C)(C)OC(=O)NC(CC(=O)OCc1ccccc1)C(=O)NC(C)(C)C(N)=O (stereo unspecified) (Boc-[ξD](OBn)-[Aib]-NH2)
inactive: SN12C > 100 µM | SK-MEL-2 > 100 µM | A549 > 100 µM | OVCAR-4 > 100 µM | HOP-62 > 100 µM | UO-31 > 100 µM | RPMI-8226 > 100 µM | NCI-H522 > 100 µM | NCI-H23 > 100 µM | COLO 205 > 100 µM | CCRF-CEM > 100 µM | SW-620 > 100 µM | SNB-19 > 100 µM | SK-OV-3 > 100 µM | OVCAR-8 > 100 µM | CAKI-1 > 100 µM | OVCAR-3 > 100 µM | U-251 > 100 µM | Hs-578T > 100 µM
